According to article PMC3486884 (PLoS Pathogens, 2012):
Where two headings read alike, the source gives them in different places.

Tested on: influenza virus (strain A/Puerto Rico/8/34/H1N1 depicted PR8)
Conditions: n=2

## CS(=O)(=O)c1ccc(NC(=O)c2cc(Cl)ccc2O)c(Cl)c1 [TVB-1338]
0.1 µM
  relative infection: 0.81
0.3 µM
  relative infection: 0.81
0.9 µM
  relative infection: 0.78
2.8 µM
  relative infection: 0.82
8.3 µM
  relative infection: 0.78

## O=C(Nc1ccc([N+](=O)[O-])cc1Cl)c1cc(Cl)ccc1OCCOc1ccccc1 [TVB-1329]
0.1 µM
  relative infection: 0.99
0.3 µM
  relative infection: 0.98
0.9 µM
  relative infection: 1.04
2.8 µM
  relative infection: 0.99
8.3 µM
  relative infection: 0.69
25.0 µM
  relative infection: 0.04

## O=C(Nc1ccc([N+](=O)[O-])cc1Cl)c1cc(Cl)cc(Cl)c1O [TVB-1326]
0.1 µM
  relative infection: 1.02
0.3 µM
  relative infection: 0.94
0.9 µM
  relative infection: 0.90
2.8 µM
  relative infection: 0.78
8.3 µM
  relative infection: 0.68
25.0 µM
  relative infection: 0.01

## O=C(Nc1ccc([N+](=O)[O-])cc1Cl)c1ccccc1O [TVB-1332]
0.1 µM
  relative infection: 1.04
0.3 µM
  relative infection: 1.06
0.9 µM
  relative infection: 1.04
8.3 µM
  relative infection: 0.02
25.0 µM
  relative infection: 0.00
